Test results published in the NIST ThermoML archive (doi:10.1016/j.jct.2010.08.019).

Experiment: xn = mol fraction of the nth substance listed
Settings: for surface tension liquid-gas: Wilhelmy-plate method; for viscosity / mass density: 101 kPa, Liquid; for viscosity: Falling or rolling sphere viscometry; for mass density: Vibrating tube method

C1CCOCC1 [tetrahydropyran] + CC(C)CC(C)(C)C
Settings	mass density [kg/m3]	surface tension liquid-gas [mN/m]	viscosity [mPa·s]
293.15 K, x1 = 0.0502	697.82	18.9	0.506
293.15 K, x1 = 0.1	703.85	19	0.514
293.15 K, x1 = 0.1499	710.17	19.2	0.524
293.15 K, x1 = 0.2	716.8	19.4	0.533
293.15 K, x1 = 0.25	723.72	19.6	0.544
293.15 K, x1 = 0.3	730.98	19.8	0.553
293.15 K, x1 = 0.35	738.59	20.1	0.564
293.15 K, x1 = 0.4	746.55	20.3	0.577
293.15 K, x1 = 0.4498	754.88	20.6	0.592
293.15 K, x1 = 0.5001	763.72	20.9	0.606
293.15 K, x1 = 0.5501	772.97	21.2	0.623
293.15 K, x1 = 0.5999	782.67	21.6	0.638
293.15 K, x1 = 0.6501	793	22	0.655
293.15 K, x1 = 0.6999	803.82	22.5	0.675
293.15 K, x1 = 0.75	815.32	23.1	0.696
293.15 K, x1 = 0.8	827.51	23.6	0.718
293.15 K, x1 = 0.8501	840.43	24.3	0.743
293.15 K, x1 = 0.9	854.12	25.2	0.771
293.15 K, x1 = 0.95	868.68	26.3	0.803
293.15 K, x1 = 1	884.27	27.5	0.86
303.15 K, x1 = 0.0502	689.38	18	0.452
303.15 K, x1 = 0.1	695.35	18.2	0.455
303.15 K, x1 = 0.1499	701.6	18.3	0.463
303.15 K, x1 = 0.2	708.16	18.6	0.47
303.15 K, x1 = 0.25	715.01	18.8	0.478
303.15 K, x1 = 0.2999	722.17	19	0.488
303.15 K, x1 = 0.3498	729.67	19.2	0.497
303.15 K, x1 = 0.3998	737.56	19.5	0.509
303.15 K, x1 = 0.4498	745.84	19.7	0.52
303.15 K, x1 = 0.5001	754.6	20	0.533
303.15 K, x1 = 0.5501	763.76	20.3	0.546
303.15 K, x1 = 0.5999	773.38	20.6	0.56
303.15 K, x1 = 0.6501	783.61	21	0.574
303.15 K, x1 = 0.6999	794.32	21.5	0.59
303.15 K, x1 = 0.75	805.72	22.1	0.607
303.15 K, x1 = 0.8	817.78	22.6	0.625
303.15 K, x1 = 0.8501	830.59	23.3	0.646
303.15 K, x1 = 0.9	844.14	24.2	0.67
303.15 K, x1 = 0.95	858.58	25.2	0.699
303.15 K, x1 = 1	874.07	26.2	0.749
313.15 K, x1 = 0.0501	680.92	17.1	0.407
313.15 K, x1 = 0.1002	686.85	17.3	0.411
313.15 K, x1 = 0.1501	693.02	17.5	0.416
313.15 K, x1 = 0.1999	699.48	17.7	0.422
313.15 K, x1 = 0.2501	706.27	17.9	0.429
313.15 K, x1 = 0.3	713.35	18.1	0.437
313.15 K, x1 = 0.3499	720.78	18.4	0.444
313.15 K, x1 = 0.4002	728.64	18.6	0.453
313.15 K, x1 = 0.4502	736.83	18.9	0.463
313.15 K, x1 = 0.4999	745.4	19.1	0.473
313.15 K, x1 = 0.5499	754.47	19.4	0.484
313.15 K, x1 = 0.6	764.05	19.7	0.496
313.15 K, x1 = 0.65	774.13	20.1	0.509
313.15 K, x1 = 0.6998	784.75	20.6	0.523
313.15 K, x1 = 0.75	796.05	21.2	0.538
313.15 K, x1 = 0.8001	808	21.7	0.554
313.15 K, x1 = 0.8501	820.66	22.4	0.573
313.15 K, x1 = 0.9001	834.12	23.2	0.596
313.15 K, x1 = 0.9498	848.37	24.1	0.624
313.15 K, x1 = 1	863.76	25.1	0.658
323.15 K, x1 = 0.0501	672.44	16.4	0.366
323.15 K, x1 = 0.1002	678.3	16.6	0.369
323.15 K, x1 = 0.1501	684.41	16.7	0.372
323.15 K, x1 = 0.1999	690.79	17	0.377
323.15 K, x1 = 0.2501	697.5	17.2	0.383
323.15 K, x1 = 0.3	704.51	17.3	0.39
323.15 K, x1 = 0.3499	711.86	17.5	0.398
323.15 K, x1 = 0.4002	719.63	17.8	0.406
323.15 K, x1 = 0.45	727.72	18	0.415
323.15 K, x1 = 0.5002	736.27	18.3	0.424
323.15 K, x1 = 0.55	745.22	18.5	0.433
323.15 K, x1 = 0.5997	754.63	18.8	0.443
323.15 K, x1 = 0.65	764.68	19.2	0.454
323.15 K, x1 = 0.6998	775.17	19.6	0.466
323.15 K, x1 = 0.75	786.37	20.1	0.479
323.15 K, x1 = 0.8001	798.2	20.7	0.493
323.15 K, x1 = 0.8501	810.77	21.3	0.508
323.15 K, x1 = 0.9002	824.1	22.1	0.523
323.15 K, x1 = 0.95	838.27	22.9	0.541
323.15 K, x1 = 1	853.46	23.8	0.565
